Results on six compounds are retold here after US20090042942A1 (priority 2005, published 2009).

The test addresses T1, human muscarinic acetylcholine M3 receptor (M3-ACh) (Homo sapiens, UniProt P20309).
T1 construct: expressed in transfected cells; host or cells: CHO-KL (Chinese Hamster Ovary) cells, membranes
The test can be described thus: biochemical. Type of test: binding.

T1 sequence (P20309 whole entry): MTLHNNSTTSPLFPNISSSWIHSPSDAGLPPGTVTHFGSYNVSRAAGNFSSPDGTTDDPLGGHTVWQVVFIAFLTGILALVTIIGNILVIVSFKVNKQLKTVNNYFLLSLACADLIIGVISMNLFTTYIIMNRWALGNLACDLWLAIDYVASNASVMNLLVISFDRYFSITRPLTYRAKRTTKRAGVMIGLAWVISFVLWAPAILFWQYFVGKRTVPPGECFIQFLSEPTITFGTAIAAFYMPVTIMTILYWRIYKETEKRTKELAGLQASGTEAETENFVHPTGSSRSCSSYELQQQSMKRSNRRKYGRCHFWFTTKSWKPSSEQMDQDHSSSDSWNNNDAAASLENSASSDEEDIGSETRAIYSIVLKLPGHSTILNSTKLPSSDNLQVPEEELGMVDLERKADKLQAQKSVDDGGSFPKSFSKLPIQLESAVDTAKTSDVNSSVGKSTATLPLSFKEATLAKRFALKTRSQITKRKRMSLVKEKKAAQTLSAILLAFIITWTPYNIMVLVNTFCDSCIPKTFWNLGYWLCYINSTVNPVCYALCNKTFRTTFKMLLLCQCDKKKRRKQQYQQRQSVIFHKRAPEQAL

For the compound `CN1CC[C@H](OC(=O)[C@@](C)(c2ccccc2)C2CCCC2)C1` [Example 1f, (3S)-1-Methylpyrrolidin-3-yl (2R)-2-cyclopentyl-2-phenylpropanoate], the IC50 is 20 nM. In other words, the double-digit nanomolar range.
The same measure for `CN1CC[C@@H](OC(=O)[C@@](C)(c2ccccc2)C2CCCC2)C1` [Example 2a, (3R)-1-Methylpyrrolidin-3-yl (2R)-2-cyclopentyl-2-phenylpropanoate]: 7.94 nM; for `CN1CC[C@H](OC(=O)[C@](C)(c2ccccc2)C2CCCC2)C1` [Example 3c, (3S)-1-Methylpyrrolidin-3-yl (2S)-2-cyclopentyl-2-phenylpropanoate]: 3.16 nM.
The same measure for `CN1CC[C@@H](OC(=O)[C@](C)(c2ccccc2)C2CCCC2)C1` [Example 4a, (3R)-1-Methylpyrrolidin-3-yl (2S)-2-cyclopentyl-2-phenylpropanoate]: 0.794 nM; for `C[C@@](C(=O)O[C@@H]1CCC[N+](C)(C)C1)(c1ccccc1)C1CCCC1` [Example 5, (3R)-3-{[(2S)-2-Cyclopentyl-2-phenylpropanoyl]oxy}-1,1-dimethylpiperidinium iodide]: 1.26 nM; for `C[C@@](C(=O)O[C@H]1CCC[N+](C)(C)C1)(c1ccccc1)C1CCCC1` [Example 6, (3S)-3-{[(2S)-2-Cyclopentyl-2-phenylpropanoyl]oxy}-1,1-dimethylpiperidinium iodide]: 20 nM.
